Columns and labels:
OX1 = molecular target: T1, OX1 (Homo sapiens, UniProt O43613); test: Orexin receptor cell-based functional assay, [Ca2+]i by FLIPR, CHO-OX1 cells; conditions: CHO-OX1 cells, [Ca2+]i by FLIPR, antagonist dose-range 0.1 nM-10 μM, EC90 of OXA; read-out: OX1
T1 construct: expressed in transfected cells; host or cells: CHO (CHO-OX1, kept under selection antibiotic)
T1 sequence (O43613 1-425): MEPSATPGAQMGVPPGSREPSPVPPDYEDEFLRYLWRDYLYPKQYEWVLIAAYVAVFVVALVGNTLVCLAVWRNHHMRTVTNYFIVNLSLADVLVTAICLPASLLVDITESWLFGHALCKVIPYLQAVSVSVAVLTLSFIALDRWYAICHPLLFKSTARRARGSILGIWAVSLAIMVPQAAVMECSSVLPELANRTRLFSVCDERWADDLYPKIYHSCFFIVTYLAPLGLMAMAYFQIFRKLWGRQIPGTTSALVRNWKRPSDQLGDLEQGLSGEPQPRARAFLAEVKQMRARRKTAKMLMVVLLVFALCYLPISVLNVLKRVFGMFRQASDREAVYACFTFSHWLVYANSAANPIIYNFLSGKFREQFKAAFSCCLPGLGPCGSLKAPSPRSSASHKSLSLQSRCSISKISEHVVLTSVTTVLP
In short: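 Antagonist mode FLIPR calcium read in CHO-OX1 and CHO-OX2 lines. Test compounds, dosed 0.1 nM-10 μM, preincubated 30 min after 37° C dye loading with 2.5 mM probenecid (calcium4 for 30 min or calcium6 for 2 h).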

CYP3A4 = molecular target: T2, CYP3A4 (Homo sapiens, UniProt P08684); test: Cytochrome P450 inhibition assay (midazolam hydroxylation); assay type: in vitro ADME; conditions: human, human liver microsomes, probe midazolam (hydroxylation to 1′-hydroxymidazolam), 10 μM test compound, midazolam at approximately its Km
T2 construct: pre-incubated with human liver microsomes and NADPH; from tissue; host or cells: human liver microsomes
T2 sequence (P08684 whole entry): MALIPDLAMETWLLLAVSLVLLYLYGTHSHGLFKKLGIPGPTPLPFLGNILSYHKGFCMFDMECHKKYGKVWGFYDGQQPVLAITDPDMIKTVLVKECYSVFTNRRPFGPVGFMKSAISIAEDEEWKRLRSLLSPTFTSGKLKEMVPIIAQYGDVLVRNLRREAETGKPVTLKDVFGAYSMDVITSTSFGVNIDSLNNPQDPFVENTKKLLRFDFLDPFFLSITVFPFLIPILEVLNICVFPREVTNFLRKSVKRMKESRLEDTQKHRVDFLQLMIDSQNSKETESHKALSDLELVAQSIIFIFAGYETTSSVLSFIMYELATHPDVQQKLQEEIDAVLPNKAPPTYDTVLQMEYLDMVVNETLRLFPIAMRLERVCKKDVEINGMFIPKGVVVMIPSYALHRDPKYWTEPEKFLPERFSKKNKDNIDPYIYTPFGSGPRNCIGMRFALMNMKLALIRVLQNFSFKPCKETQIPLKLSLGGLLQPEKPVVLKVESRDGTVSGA
In short: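 Percent inhibition of midazolam 1′-hydroxylation by 10 μM compound was measured, midazolam dosed at about Km. Time-dependent inhibition was probed by a 30 min preincubation of compound with human liver microsomes and NADPH ahead of substrate, compared against samples without preincubation.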

Row | Structure (SMILES) | IC50 (OX1) [nM] | inhibition at 10 µM (CYP3A4) [%]
1 | Cc1ccc(-c2cnn(C)c2)c(C(=O)N2CCC[C@@H](C)[C@H]2CNc2nc3ccccc3o2)c1 [Example A2, ((2S,3R)-2-((Benzo[d]oxazol-2-ylamino)methyl)-3-methylpiperidin-1-yl)(5-methyl-2-(1-methyl-1H-pyrazol-4-yl)phenyl)methanone] | 61 | 93
2 | Cc1ccc(-c2cnccc2C)c(C(=O)N2CCC[C@@H](C)[C@H]2CNc2ccc(C(F)(F)F)cn2)c1 [Example A8, ((2S,3R)-3-Methyl-2-(((5-(trifluoromethyl)pyridin-2-yl)amino)methyl)piperidin-1-yl)(5-methyl-2-(4-methylpyridin-3-yl)phenyl)methanone] | 58 | 99
3 | Cc1ccc(-c2cnn(C)c2)c(C(=O)N2CCC[C@@H](C)[C@H]2CNc2nc3ccc(Cl)cc3o2)c1 [Example A10, ((2S,3R)-2-(((6-Chlorobenzo[d]oxazol-2-yl)amino)methyl)-3-methylpiperidin-1-yl)(5-methyl-2-(1-methyl-1H-pyrazol-4-yl)phenyl)methanone] | 81 | 98
4 | Cc1ccc(-c2cnn(C)c2)c(C(=O)N2CCC[C@@H](C)[C@H]2CNc2nc3cc(Cl)ccc3o2)c1 [Example A12, ((2S,3R)-2-(((5-chlorobenzo[d]oxazol-2-yl)amino)methyl)-3-methylpiperidin-1-yl)(5-methyl-2-(1-methyl-1H-pyrazol-4-yl)phenyl)methanone] | 20 | 98
5 | Cc1ccc(-n2ncnc2C)c(C(=O)N2CCC[C@@H](C)[C@H]2CNc2ccc(C(F)(F)F)cn2)c1 [Example A16, ((2S,3R)-3-Methyl-2-(((5-(trifluoromethyl)pyridin-2-yl)amino)methyl)piperidin-1-yl)(5-methyl-2-(5-methyl-1H-1,2,4-triazol-1-yl)phenyl)methanone] | 260 | 96
6 | Cc1ccc(-n2cnc(C)n2)c(C(=O)N2CCC[C@@H](C)[C@H]2CNc2ccc(C(F)(F)F)cn2)c1 [Example A17, ((2S,3R)-3-Methyl-2-(((5-(trifluoromethyl)pyridin-2-yl)amino)methyl)piperidin-1-yl)(5-methyl-2-(3-methyl-1H-1,2,4-triazol-1-yl)phenyl)methanone] | 20 | 95
7 | Cc1ccc(-c2nccn2C)c(C(=O)N2CCC[C@@H](C)[C@H]2CNc2ccc(C(F)(F)F)cn2)c1 [Example A20, ((2S,3R)-3-Methyl-2-(((5-(trifluoromethyl)pyridin-2-yl)amino)methyl)piperidin-1-yl)(5-methyl-2-(1-methyl-1H-imidazol-2-yl)phenyl)methanone] | 37 | 83
8 | COc1ccnc(-c2ccc(C)cc2C(=O)N2CCC[C@@H](C)[C@H]2CNc2ccc(C(F)(F)F)cn2)n1 [Example A21, (2-(4-Methoxypyrimidin-2-yl)-5-methylphenyl)((2S,3R)-3-methyl-2-(((5-(trifluoromethyl)pyridin-2-yl)amino)methyl)piperidin-1-yl)methanone] | 13 | 89
9 | Cc1ccc(-c2nn[nH]n2)c(C(=O)N2CCC[C@@H](C)[C@H]2CNc2ccc(C(F)(F)F)cn2)c1 [Example A23, ((2S,3R)-3-Methyl-2-(((5-(trifluoromethyl)pyridin-2-yl)amino)methyl)piperidin-1-yl)(5-methyl-2-(2H-tetrazol-5-yl)phenyl)methanone] | > 1000 | 75
10 | Cc1ccc(-n2cnc(C)n2)c(C(=O)N2CCC[C@@H](C)[C@H]2CNc2nc3cc(Cl)ccc3o2)c1 [Example A29, ((2S,3R)-2-(((5-Chlorobenzo[d]oxazol-2-yl)amino)methyl)-3-methylpiperidin-1-yl)(5-methyl-2-(3-methyl-1H-1,2,4-triazol-1-yl)phenyl)methanone] | 87 | 91

The remaining lines, values ahead:

Row | IC50 (OX1) [nM] | inhibition at 10 µM (CYP3A4) [%] | Structure (SMILES)
11 | 6 | 98 | Cc1ccc(-c2cn[nH]c2)c(C(=O)N2CCC[C@@H](C)[C@H]2CNc2ccc(C(F)(F)F)cn2)c1 [Example A3, ((2S,3R)-3-Methyl-2-(((5-(trifluoromethyl)pyridin-2-yl)amino)methyl)piperidin-1-yl)(5-methyl-2-(1H-pyrazol-4-yl)phenyl)methanone]
12 | 6 | 98 | Cc1cncc(-c2ccc(C)cc2C(=O)N2CCC[C@@H](C)[C@H]2CNc2ccc(C(F)(F)F)cn2)c1 [Example A5, ((2S,3R)-3-Methyl-2-(((5-(trifluoromethyl)pyridin-2-yl)amino)methyl)piperidin-1-yl)(5-methyl-2-(5-methylpyridin-3-yl)phenyl)methanone]
13 | 13 | 85 | Cc1ccc(-c2ccn(C)c2)c(C(=O)N2CCC[C@@H](C)[C@H]2CNc2ccc(C(F)(F)F)cn2)c1 [Example A6, ((2S,3R)-3-Methyl-2-(((5-(trifluoromethyl)pyridin-2-yl)amino)methyl)piperidin-1-yl)(5-methyl-2-(1-methyl-1H-pyrrol-3-yl)phenyl)methanone]
14 | 9 | 89 | Cc1ccc(-c2ccccn2)c(C(=O)N2CCC[C@@H](C)[C@H]2CNc2ccc(C(F)(F)F)cn2)c1 [Example A9, ((2S,3R)-3-Methyl-2-(((5-(trifluoromethyl)pyridin-2-yl)amino)methyl)piperidin-1-yl)(5-methyl-2-(pyridin-2-yl)phenyl)methanone]
15 | 3 | 78 | Cc1ccc(-n2nccn2)c(C(=O)N2CCC[C@@H](C)[C@H]2CNc2nc3cc(Cl)ccc3o2)c1 [Example A11, ((2S,3R)-2-(((5-Chlorobenzo[d]oxazol-2-yl)amino)methyl)-3-methylpiperidin-1-yl)(5-methyl-2-(2H-1,2,3-triazol-2-yl)phenyl)methanone]
16 | 10 | 80 | Cc1ccc(-n2nccn2)c(C(=O)N2CCC[C@@H](C)[C@H]2CNc2nc3ccc(Cl)cc3o2)c1 [Example A14, ((2S,3R)-2-(((6-Chlorobenzo[d]oxazol-2-yl)amino)methyl)-3-methylpiperidin-1-yl)(5-methyl-2-(2H-1,2,3-triazol-2-yl)phenyl)methanone]
17 | 7 | 95 | Cc1ccc(-c2ccn(C)n2)c(C(=O)N2CCC[C@@H](C)[C@H]2CNc2ccc(C(F)(F)F)cn2)c1 [Example A18, ((2S,3R)-3-Methyl-2-(((5-(trifluoromethyl)pyridin-2-yl)amino)methyl)piperidin-1-yl)(5-methyl-2-(1-methyl-1H-pyrazol-3-yl)phenyl)methanone]
18 | 4 | 96 | Cc1ccc(-c2cnccn2)c(C(=O)N2CCC[C@@H](C)[C@H]2CNc2ccc(C(F)(F)F)cn2)c1 [Example A19, ((2S,3R)-3-Methyl-2-(((5-(trifluoromethyl)pyridin-2-yl)amino)methyl)piperidin-1-yl)(5-methyl-2-(pyrazin-2-yl)phenyl)methanone]
19 | 11 | 97 | Cc1ccc(-c2nccs2)c(C(=O)N2CCC[C@@H](C)[C@H]2CNc2ccc(C(F)(F)F)cn2)c1 [Example A24, ((2S,3R)-3-Methyl-2-(((5-(trifluoromethyl)pyridin-2-yl)amino)methyl)piperidin-1-yl)(5-methyl-2-(thiazol-2-yl)phenyl)methanone]

Reference: US9440982B2 (Eolas Therapeutics, Inc., priority 2012, dated 2016)
